For orientation: IC50 means the concentration needed to halve the response being measured. Read a low IC50 as greater potency in that assay.

SMILES strings stand for the structures. Some results are limits rather than exact numbers.

This assay relates to WT Mtb Erdman strain. The assay can be described thus: Microplate Alamar Blue Assay (MABA), Mtb growth inhibition. It counts as cell-based, Mycobacterium tuberculosis. Particulars: Mycobacterium tuberculosis, ERDMAN, 168 h, Middlebrook 7H9 media, 7 days at 37° C. in 5% CO2. A general note: Resazurin is reduced to fluorescent resorufin, in cell work by metabolically active cells.
`CCOc1nc(NCCCc2ccccc2)c2cc(C)sc2n1` [Example 543, 2-ethoxy-6-methyl-N-(3-phenylpropyl)thieno[2,3-d]pyrimidin-4-amine] returned an IC50 of 130 nM.
Then `Cc1cc2c(NCCCc3ccccc3)nc(-c3ccoc3)nc2s1` [Example 102, 2-(furan-3-yl)-6-methyl-N-(3-phenylpropyl)thieno [2,3-d]pyrimidin-4-amine], with 27 nM.
Under `Cc1cc2c(NCCCc3ccc(OC4CC4)cc3)nc(C(F)(F)F)nc2s1` [Example 233, N-(3-(4-cyclopropoxyphenyl)propyl)-6-methyl-2-(trifluoromethyl) thieno[2,3-d] pyrimidin-4-amine] stands 2100 nM.
Then `CCc1nc(NCCCc2ccc(-c3ccc(C(F)(F)F)nc3)cc2)c2cc(C)sc2n1` [Example 297, 2-ethyl-6-methyl-N-(3-(4-(6-(trifluoromethyl)pyridin-3-yl)phenyl)propyl) thieno[2,3-d]pyrimidin-4-amine], with 34 nM; and `CCc1nc(NCCCc2ccc(-c3ccc(OC(F)(F)F)cc3F)cc2)c2cc(C)sc2n1` [Example 374, 2-ethyl-N-(3-(2′-fluoro-4′-(tri-fluoromethoxy)-[1,1′-biphenyl]-4-yl)propyl)-6-methylthieno[2,3-d]pyrimidin-4-amine], with 30 nM.
On to `Cc1cc2c(NCCCc3ccc(-c4ncc(C(F)(F)F)cn4)cc3)nc(-c3ccoc3)nc2s1` [Example 394, 2-(furan-3-yl)-6-methyl-N-(3-(4-[5-(trifluoromethyl)pyrimidin-2-yl]phenyl)propyl) thieno[2,3-d] pyrimidin-4-amine], for which the IC50 was below 4 nM.
Under `CCc1nc(NCCCN(C)c2ccccc2)c2cc(C)sc2n1` [Example 195, N1-(2-ethyl-6-methylthieno[2,3-d]pyrimidin-4-yl)-N3-methyl-N3-phenylpropane-1,3-diamine] stands 680 nM.
`CCc1nc(NCCCc2ccc(N3CCCCC3)cc2)c2cc(C)sc2n1` [Example 421, 2-ethyl-6-methyl-N-(3-(4-(piperidin-1-yl)phenyl)propyl) thieno[2,3-d]pyrimidin-4-amine] registered a concentration for half-maximal inhibition (IC50) of 170 nM.
Then `CCOc1nc(NCCCc2ccc(-c3cnc(C(F)(F)F)cn3)cc2)c2cc(C)sc2n1` [Example 560, 2-ethoxy-6-methyl-N-(3-(4-[5-(trifluoromethyl)pyrazin-2-yl]phenyl)propyl)thieno[2,3-d]pyrimidin-4-amine], with 50 nM; and `Cc1cc2c(NCCCc3ccc(-c4ccc(OC(F)(F)F)cc4)cc3)nc(SC(F)(F)F)nc2s1` [Example 597, 6-methyl-N-(3-(4′-(trifluoromethoxy)-[1,1′-biphenyl]-4-yl)propyl)-2-((trifluoromethyl)thio)thieno[2,3-d]pyrimidin-4-amine], with 6300 nM.
Then `Cc1cc2c(NCCCc3ccc(-c4ccc(C(F)(F)F)cn4)cc3)nc(-c3ccoc3)nc2s1` [Example 387, 2-(furan-3-yl)-6-methyl-N-(3-(4-[5-(trifluoromethyl)pyridin-2-yl]phenyl)propyl) thieno[2,3-d]pyrimidin-4-amine], with 5 nM.
Then `CCc1nc(NCCCc2ccc(-c3ccc(=O)[nH]c3)cc2)c2cc(C)sc2n1` [Example 278, 5-(4-(3-((2-ethyl-6-methylthieno[2,3-d]pyrimidin-4-yl)amino)propyl)phenyl)pyridin-2(1H)-one], with 710 nM.
Molecule `Cc1cc2c(NCCCc3ccccc3)nc(-c3ccsc3)nc2s1` [Example 101, 6-methyl-N-(3-phenylpropyl)-2-(thiophen-3-yl)thieno[2,3-d]pyrimidin-4-amine] registered a 50% inhibitory concentration (IC50) of 490 nM.
Regarding `CSc1nc(NCCCc2ccccc2)c2cc(C)sc2n1` [Example 55, 6-methyl-2-(methylthio)-N-(3-phenylpropyl)thieno [2,3-d]pyrimidin-4-amine], inhibition was half-maximal at 17 nM (IC50).
For `Cc1cc2c(NCCCc3ccc(-c4ccc(OC(F)(F)F)cc4)cc3)nc(-n3ccnn3)nc2s1` [Example 602, 6-methyl-2-(1H-1,2,3-triazol-1-yl)-N-(3-(4′-(trifluoromethoxy)-[1,1′-biphenyl]-4-yl)propyl)thieno[2,3-d]pyrimidin-4-amine], the IC50 was 190 nM. Compared with the last molecule, the IC50 is about 11-fold higher.
Turning to `CSc1nc(NCCCc2ccc(-c3ccc(C(F)(F)F)cn3)cc2)c2cc(C)sc2n1` [Example 458, 6-methyl-2-(methylthio)-N-(3-(4-(5-(trifluoromethyl)pyridin-2-yl)phenyl)propyl)thieno[2,3-d]pyrimidin-4-amine], 14 nM corresponded to half-maximal inhibition (IC50).
Under `CSc1nc(NCCCc2ccc(-c3ccc(C#N)cc3)cc2)c2cc(C)sc2n1` [Example 432, 4′-(3-((6-methyl-2-(methylthio)thieno[2,3-d]pyrimidin-4-yl)amino)propyl)-[1,1′-biphenyl]-4-carbonitrile] stands 14 nM; under `Cc1cc2c(NCCCc3ccc(-c4ccc(OC(F)(F)F)cc4)cc3)nc(-c3cnn(C)c3)nc2s1` [Example 447, 6-methyl-2-(1-methyl-1H-pyrazol-4-yl)-N-(3-(4′-(trifluoromethoxy)-[1,1′-biphenyl]-4-yl)propyl)thieno[2,3-d]pyrimidin-4-amine], 57 nM; under `COc1ccccc1CCCNc1nc(C(F)(F)F)nc2sc(C)cc12` [Example 161, N-(3-(2-methoxyphenyl)propyl)-6-methyl-2-(trifluoromethyl) thieno[2,3-d]pyrimidin-4-amine], 4400 nM.
Under `Cc1cc2c(NCCCc3ccc(-c4ccc(OC(F)(F)F)cc4)cc3)nc(-c3ccoc3C)nc2s1` [Example 456, 6-methyl-2-(2-methylfuran-3-yl)-N-(3-(4′-(trifluoromethoxy)-[1,1′-biphenyl]-4-yl)propyl)thieno[2,3-d]pyrimidin-4-amine] stands above 10000 nM; under `CSc1cnc(-c2ccc(CCCNc3nc(-c4ccoc4)nc4sc(C)cc34)cc2)cn1` [Example 399, 2-(furan-3-yl)-6-methyl-N-(3-(4-[5-(methylsulfanyl)pyrazin-2-yl]phenyl)propyl) thieno[2,3-d] pyrimidin-4-amine], above 270 nM; under `CCc1nc(NCCc2ccc([N+](=O)[O-])cc2)c2cc(C)sc2n1` [Example 16, 2-ethyl-6-methyl-N-(4-nitrophenethyl)thieno [2,3-d]pyrimidin-4-amine], 9000 nM.
Under `Cc1cc2c(NCCc3ccc4ccccc4n3)nc(C(F)(F)F)nc2s1` [Example 180, 6-methyl-N-(2-(quinolin-2-yl)ethyl)-2-(trifluoromethyl) thieno[2,3-d] pyrimidin-4-amine] stands above 10000 nM; under `Cc1cc2c(NCCCc3ccc(-c4ccc(OC(F)(F)F)cc4)cc3)nc(-c3ccoc3)nc2s1` [Example 291, 2-(furan-3-yl)-6-methyl-N-(3-(4′-(trifluoromethoxy)-[1,1′-biphenyl]-4-yl)propyl)thieno [2,3-d]pyrimidin-4-amine], 8 nM.
In the case of `Cc1cc2c(NCCCc3ccccc3)nc(N=[N+]=[N-])nc2s1` [Example 156, 2-azido-6-methyl-N-(3-phenylpropyl)thieno [2,3-d]pyrimidin-4-amine], the IC50 stood at 160 nM.
Then `Cc1cc2c(NCCCc3ccc(-c4ccc(C(F)(F)F)cc4)cc3)nc(-c3ccoc3)nc2s1` [Example 339, 2-(furan-3-yl)-6-methyl-N-(3-[4′-(trifluoromethyl)-[1,1′-biphenyl]-4-yl]propyl)thieno [2,3-d]pyrimidin-4-amine], with below 15 nM.

The values above are taken from patent US20240279236A1, “COMPOUNDS AND METHODS OF TREATING TUBERCULOSIS” (Fimbrion Therapeutics, Inc., priority 2021, published 2024).
